ChEMBL document CHEMBL3885881, “DrugMatrix”

Species: Rattus norvegicus
Assay: DrugMatrix - Regimen: Daily Repeat
Assay type: toxicity, organism-based, Sprague-Dawley
Set-up: regimen Daily Repeat, gender Male, age 6-8 weeks
Conditions: in vivo, po, route oral GAVAGE, […]; for ALKALINE PHOSPHATASE / ASPARTATE AMINOTRANSFERASE / BLOOD UREA NITROGEN / CARBON DIOXIDE / CHLORIDE / CHOLESTEROL / CREATINE PHOSPHOKINASE / CREATININE / GLUCOSE / LACTATE DEHYDROGENASE / LIPASE / PHOSPHORUS / POTASSIUM / SODIUM / TOTAL BILIRUBIN / TOTAL PROTEIN / URIC ACID / ALANINE AMINOTRANSFERASE / ALBUMIN: tissue Plasma; for BASOPHIL / EOSINOPHIL / ERYTHROCYTE COUNT / HEMATOCRIT / HEMOGLOBIN / LEUKOCYTE COUNT / LYMPHOCYTE / MEAN CORPUSCULAR HEMOGLOBIN / MEAN CORPUSCULAR HEMOGLOBIN CONCENTRATION / MEAN CORPUSCULAR VOLUME / MONOCYTE / NEUTROPHIL / PLATELET COUNT / ABSOLUTE BASOPHIL / ABSOLUTE EOSINOPHIL / ABSOLUTE LYMPHOCYTE / ABSOLUTE MONOCYTE / ABSOLUTE SEGMENTED NEUTROPHIL / NUCLEATED RED BLOOD CELLS: tissue Blood
[1] = 23 mg/kg, 120 h, dose level Low, time 5 day
[2] = 23 mg/kg, dose level High, time 28 day
[3] = 64 mg/kg, 72 h, dose level M1, time 3 day
[4] = 64 mg/kg, 120 h, dose level M1, time 5 day

`CC1=C(CC(=O)O)c2cc(F)ccc2/C1=C\c1ccc([S+](C)[O-])cc1` (stereo unspecified) was tested, and the “ALKALINE PHOSPHATASE” value [1] was 330 u/L, the “ASPARTATE AMINOTRANSFERASE” value [1] was 79.33 u/L and the “BLOOD UREA NITROGEN” value [1] was 14.33 mg/dL. For the same compound, the “CARBON DIOXIDE” value [1] was 29.33 mmol/L, the CHLORIDE [1] was 100.67 MEQ/L and the CHOLESTEROL [1] was 85 mg/dL. For the same compound, the “CREATINE PHOSPHOKINASE” value [1] was 210.67 u/L, the CREATININE [1] was 0.2 mg/dL and the GLUCOSE [1] was 156 mg/dL. For the same compound, the “LACTATE DEHYDROGENASE” value [1] was 80 u/L, the LIPASE [1] was 11.67 u/L and the PHOSPHORUS [1] was 10.87 mg/dL. For the same compound, the POTASSIUM [1] was 5.36 MEQ/L, the SODIUM [1] was 146.07 MEQ/L and the “TOTAL BILIRUBIN” value [1] was 0.17 mg/dL. For the same compound, the “TOTAL PROTEIN” value [1] was 6.1 G/DL, the “URIC ACID” value [1] was 0.77 mg/dL and the BASOPHIL [2] was 0.35%. For the same compound, the EOSINOPHIL [2] was 0.51%, the “ERYTHROCYTE COUNT” value [2] was 8.35 x10E6/uL and the HEMATOCRIT [2] was 50.37%. The HEMOGLOBIN [2] was 16.23 G/DL, the “LEUKOCYTE COUNT” value [2] was 13.2 x10E3/uL and the LYMPHOCYTE [2] was 85.99%. For the same compound, the “MEAN CORPUSCULAR HEMOGLOBIN” value [2] was 19.47 pg, the “MEAN CORPUSCULAR HEMOGLOBIN CONCENTRATION” value [2] was 32.25 G/DL and the “MEAN CORPUSCULAR VOLUME” value [2] was 60.4 fL. The MONOCYTE [2] was 1.36%, the NEUTROPHIL [2] was 10.23% and the “PLATELET COUNT” value [2] was 1228.2 x10E3/uL. For the same compound, the “ALANINE AMINOTRANSFERASE” value [2] was 29 u/L, the ALBUMIN [2] was 3.94 G/DL and the “ALKALINE PHOSPHATASE” value [2] was 227.1 u/L. For the same compound, the “ASPARTATE AMINOTRANSFERASE” value [2] was 60.9 u/L, the “BLOOD UREA NITROGEN” value [2] was 12.3 mg/dL and the CHLORIDE [2] was 106.6 MEQ/L. The CHOLESTEROL [2] was 55 mg/dL, the “CREATINE PHOSPHOKINASE” value [2] was 162.4 u/L and the CREATININE [2] was 0.52 mg/dL. For the same compound, the GLUCOSE [2] was 134.2 mg/dL, the PHOSPHORUS [2] was 11.59 mg/dL and the POTASSIUM [2] was 6.38 MEQ/L. The SODIUM [2] was 153.3 MEQ/L, the “TOTAL BILIRUBIN” value [2] was 0.22 mg/dL and the “TOTAL PROTEIN” value [2] was 6.6 G/DL. The “ABSOLUTE BASOPHIL” value [3] was 0 CELLS/uL, the “ABSOLUTE EOSINOPHIL” value [3] was 0 CELLS/uL and the “ABSOLUTE LYMPHOCYTE” value [3] was 23014.33 CELLS/uL. For the same compound, the “ABSOLUTE MONOCYTE” value [3] was 921.67 CELLS/uL, the “ABSOLUTE SEGMENTED NEUTROPHIL” value [3] was 4264 CELLS/uL and the BASOPHIL [3] was 0%. For the same compound, the EOSINOPHIL [3] was 0%, the “ERYTHROCYTE COUNT” value [3] was 5.01 x10E6/uL and the HEMATOCRIT [3] was 31.37%. For the same compound, the HEMOGLOBIN [3] was 12.4 G/DL, the “LEUKOCYTE COUNT” value [3] was 28.2 x10E3/uL and the LYMPHOCYTE [3] was 80.67%. For the same compound, the “MEAN CORPUSCULAR HEMOGLOBIN” value [3] was 24.8 pg, the “MEAN CORPUSCULAR HEMOGLOBIN CONCENTRATION” value [3] was 39.53 G/DL and the “MEAN CORPUSCULAR VOLUME” value [3] was 62.6 fL. The MONOCYTE [3] was 3.33%, the NEUTROPHIL [3] was 16% and the “NUCLEATED RED BLOOD CELLS” value [3] was 0 /100WBC. For the same compound, the “PLATELET COUNT” value [3] was 1053 x10E3/uL, the “ALANINE AMINOTRANSFERASE” value [3] was 55.67 u/L and the ALBUMIN [3] was 3.33 G/DL. The “ALKALINE PHOSPHATASE” value [3] was 252 u/L, the “ASPARTATE AMINOTRANSFERASE” value [3] was 68 u/L and the “BLOOD UREA NITROGEN” value [3] was 9 mg/dL. For the same compound, the “CARBON DIOXIDE” value [3] was 22.33 mmol/L, the CHLORIDE [3] was 105 MEQ/L and the CHOLESTEROL [3] was 84.33 mg/dL. The “CREATINE PHOSPHOKINASE” value [3] was 173.33 u/L, the CREATININE [3] was 0.16 mg/dL and the GLUCOSE [3] was 162.67 mg/dL. The “LACTATE DEHYDROGENASE” value [3] was 160.33 u/L, the LIPASE [3] was 10.33 u/L and the PHOSPHORUS [3] was 9.7 mg/dL. For the same compound, the POTASSIUM [3] was 6.43 MEQ/L, the SODIUM [3] was 144.3 MEQ/L and the “TOTAL BILIRUBIN” value [3] was 0.17 mg/dL. For the same compound, the “TOTAL PROTEIN” value [3] was 5.17 G/DL, the “URIC ACID” value [3] was 1.37 mg/dL and the “ABSOLUTE BASOPHIL” value [4] was 0 CELLS/uL. The “ABSOLUTE EOSINOPHIL” value [4] was 0 CELLS/uL, the “ABSOLUTE LYMPHOCYTE” value [4] was 11762.67 CELLS/uL and the “ABSOLUTE MONOCYTE” value [4] was 305.67 CELLS/uL. The “ABSOLUTE SEGMENTED NEUTROPHIL” value [4] was 2898.33 CELLS/uL, the BASOPHIL [4] was 0% and the EOSINOPHIL [4] was 0%. For the same compound, the “ERYTHROCYTE COUNT” value [4] was 4.62 x10E6/uL, the HEMATOCRIT [4] was 30.03% and the HEMOGLOBIN [4] was 11.8 G/DL. For the same compound, the “LEUKOCYTE COUNT” value [4] was 14.97 x10E3/uL, the LYMPHOCYTE [4] was 78.67% and the “MEAN CORPUSCULAR HEMOGLOBIN” value [4] was 25.5 pg. For the same compound, the “MEAN CORPUSCULAR HEMOGLOBIN CONCENTRATION” value [4] was 39.3 G/DL, the “MEAN CORPUSCULAR VOLUME” value [4] was 64.87 fL and the MONOCYTE [4] was 2%. The NEUTROPHIL [4] was 19.33%, the “NUCLEATED RED BLOOD CELLS” value [4] was 0 /100WBC and the “PLATELET COUNT” value [4] was 1198 x10E3/uL. The “ALANINE AMINOTRANSFERASE” value [4] was 48.67 u/L, the ALBUMIN [4] was 3.57 G/DL and the “ALKALINE PHOSPHATASE” value [4] was 225.67 u/L. The “ASPARTATE AMINOTRANSFERASE” value [4] was 64.67 u/L, the “BLOOD UREA NITROGEN” value [4] was 11 mg/dL and the “CARBON DIOXIDE” value [4] was 31.67 mmol/L. The CHLORIDE [4] was 101.33 MEQ/L, the CHOLESTEROL [4] was 88.33 mg/dL and the “CREATINE PHOSPHOKINASE” value [4] was 237.33 u/L. For the same compound, the CREATININE [4] was 0.18 mg/dL, the GLUCOSE [4] was 174.67 mg/dL and the “LACTATE DEHYDROGENASE” value [4] was 137.33 u/L. For the same compound, the LIPASE [4] was 10.67 u/L, the PHOSPHORUS [4] was 10.57 mg/dL and the POTASSIUM [4] was 5.08 MEQ/L. For the same compound, the SODIUM [4] was 146.77 MEQ/L, the “TOTAL BILIRUBIN” value [4] was 0.13 mg/dL and the “TOTAL PROTEIN” value [4] was 5.57 G/DL. The “URIC ACID” value [4] was 0.5 mg/dL.
